Experimental data as given in ChEMBL document CHEMBL1201862, “PubChem BioAssay data set” (2004).
“And” between values parts separate entries of the source, which are not always exact repeats. Equal values may be shown once. The source made the active and inactive calls.

Assays:
[1] = HEp-2 cell cytotoxicity, dose response, cytotoxicity control for RSV inhibitor project, HTS (AID 2410); assay type: functional; settings: human respiratory syncytial virus
[2] = microbe, parasite or virus in culture; assay type: functional; settings: Mycobacterium tuberculosis
[3] = Luminescence Cell-Based Dose Retest to Confirm Inhibitors of Cancer Stem Cells. [Related pubchem assays (depositor defined):AID2717, AID2721]; assay type: functional; settings: Homo sapiens
Vero [4] = assay: cells; assay type: functional, cell-based; settings: Chlorocebus sabaeus
Vero [5] = assay: cells; assay type: functional; settings: Chlorocebus sabaeus
[6] = target: T1, Polyadenylate-binding protein 1 (Homo sapiens, UniProt P11940); assay: PABP1 MLLE–PAM2 interaction inhibitors, dose response, miRNA deadenylation inhibitor project, biochemical, fluorescence polarization, Cy5-PAM2 peptide, secondary (AID 602260); assay type: functional; settings: read-out: IC50_Mean
[7] = target: T1, Polyadenylate-binding protein 1; assay: PABP1 MLLE–PAM2 binding inhibitor potency, dose response, biochemical, fluorescence polarization, FITC-PAM2 peptide (AID 602259); assay type: functional; settings: read-out: IC50_Mean
Escherichia coli = assay: microbe, parasite or virus in culture
BJ [8] = assay: cytotoxicity toward BJ-TERT fibroblasts, dose response, cell-based, RAS-independent, luminescence (AID 1933); assay type: functional; settings: Homo sapiens
BJ [9] = assay: cells; assay type: functional, cell-based; settings: Homo sapiens
BJ [10] = assay: cytotoxicity toward BJ-TERT-LT-ST fibroblasts, dose response, cell-based, RAS-independent, luminescence (AID 1935); assay type: functional; settings: Homo sapiens;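 note: BJ fibroblasts immortalized with TERT plus LT and ST oncogenes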
[11] = cytotoxicity toward DRD oncogenic fibroblasts, dose response, cell-based, non-viral oncogenic, luminescence (AID 1934); assay type: functional; settings: Homo sapiens
[12] = target: T2, Microphthalmia-associated transcription factor (Homo sapiens, UniProt O75030); assay: TRPM1 promoter luciferase signal decrease, dose response, MITF inhibitor project, cell-based, SK-MEL-5, cherry-picked, set 3 (AID 493073); assay type: functional
T2 sequence (O75030 whole entry): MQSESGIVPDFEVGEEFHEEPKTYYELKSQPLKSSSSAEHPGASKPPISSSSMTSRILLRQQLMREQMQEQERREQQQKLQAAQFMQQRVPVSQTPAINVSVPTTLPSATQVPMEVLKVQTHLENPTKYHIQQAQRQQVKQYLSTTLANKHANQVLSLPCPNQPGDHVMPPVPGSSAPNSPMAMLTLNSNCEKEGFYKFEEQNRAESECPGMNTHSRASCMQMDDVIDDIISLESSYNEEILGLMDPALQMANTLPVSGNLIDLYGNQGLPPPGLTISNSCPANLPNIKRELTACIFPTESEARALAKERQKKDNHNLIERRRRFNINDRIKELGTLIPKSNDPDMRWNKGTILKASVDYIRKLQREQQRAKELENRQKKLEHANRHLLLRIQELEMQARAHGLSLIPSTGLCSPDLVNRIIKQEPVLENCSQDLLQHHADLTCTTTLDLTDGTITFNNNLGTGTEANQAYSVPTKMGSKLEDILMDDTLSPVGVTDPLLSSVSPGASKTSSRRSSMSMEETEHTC

[13] = A Cell Based Secondary Assay To Explore Cytotoxicity of Compounds that Sensitize Mycobacterium Tuberculosis to Beta-Lactam Antibiotics.; assay type: functional
[14] = NIH-3T3 fibroblast cytotoxicity, dose response, cytotoxicity control, cell-based, fluorescence, Alamar Blue, secondary assay (AID 2327); assay type: functional;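 note: NIH-3T3 mouse fibroblasts cultured with fluconazole at 8 µg/mL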
[15] = C. albicans growth with fluconazole, confirmation, fluorescence, retest (AID 2467); assay type: functional, cell-based
[16] = target: T3, Heat shock factor protein 1 (Mus musculus, UniProt P38532); assay: HSF1 potentiators in luciferase reporter cells, confirmation, cell-based, NIH3T3, luminescence, dose retest (AID 435004); assay type: functional;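 note: stress induced by proteasome inhibitor MG132 added 30 min after compound; luciferase reporter driven by HSF1 response element in NIH3T3 cells; actives raise luminescence as potentiators of the MG132 stress response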
T3 sequence (P38532 whole entry): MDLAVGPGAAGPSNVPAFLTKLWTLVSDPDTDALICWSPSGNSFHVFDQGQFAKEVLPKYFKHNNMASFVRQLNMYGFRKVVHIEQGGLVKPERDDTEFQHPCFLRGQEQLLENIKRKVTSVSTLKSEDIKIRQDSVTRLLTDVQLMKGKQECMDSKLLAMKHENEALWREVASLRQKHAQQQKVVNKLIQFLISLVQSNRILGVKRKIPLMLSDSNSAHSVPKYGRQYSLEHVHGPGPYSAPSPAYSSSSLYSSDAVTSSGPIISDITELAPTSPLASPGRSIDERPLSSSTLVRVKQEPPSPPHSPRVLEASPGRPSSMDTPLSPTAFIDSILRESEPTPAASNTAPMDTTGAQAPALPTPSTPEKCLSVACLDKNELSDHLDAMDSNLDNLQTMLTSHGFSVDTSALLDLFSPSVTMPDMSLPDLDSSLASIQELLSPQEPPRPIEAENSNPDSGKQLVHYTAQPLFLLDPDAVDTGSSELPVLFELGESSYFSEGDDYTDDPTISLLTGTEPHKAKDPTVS

cells [17] = assay type: functional, cell-based
cells [18] = assay type: functional, cell-based; remark: listed apart in the source
[19] = Shn3 3'UTR reporter inhibitors, dose response, cell-based, Clone20 osteoblasts, firefly luciferase, cherry-picked (AID 624132); assay type: functional;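 note: firefly luciferase luminescence from reporter carrying the Shn3 3'UTR in osteoblasts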
[20] = HepG2 cell cytotoxicity, dose response, cytotoxicity control for Shn3 inhibitor project, CellTiter-Glo, cherry-picked (AID 624134); assay type: functional, cell-based
[21] = control 3'UTR Renilla luciferase suppression, dose response, counter-screen for Shn3 inhibitor project, cell-based, Clone20-Shn3RL, cherry-picked (AID 624133); assay type: functional
[22] = THP-1 cell cytotoxicity, dose response, cytotoxicity control for non-replicating M. tuberculosis project (AID 489025); assay type: functional
[23] = target: Heat shock protein HSP 90-alpha (Homo sapiens, UniProt P07900); assay type: functional, organism-based
[24] = target: Glucose-6-phosphate 1-dehydrogenase (Homo sapiens, UniProt P11413); assay: human G6PD enzyme inhibitors, dose response, selectivity assay for P. falciparum G6PD inhibitor project, biochemical, fluorescence (AID 504792); assay type: functional
Hexokinase = target: T4, Hexokinase (Trypanosoma brucei, UniProt Q38C41); assay: Confirmation assay for inhibitors of Trypanosoma brucei hexokinase 1-Analogue-first series. [Related pubchem assays (depositor defined):AID1430, AID1632, AID2516, AID2560, AID2579, AID2600, AID449725, AID492951]; assay type: functional
T4 sequence (Q38C41 whole entry): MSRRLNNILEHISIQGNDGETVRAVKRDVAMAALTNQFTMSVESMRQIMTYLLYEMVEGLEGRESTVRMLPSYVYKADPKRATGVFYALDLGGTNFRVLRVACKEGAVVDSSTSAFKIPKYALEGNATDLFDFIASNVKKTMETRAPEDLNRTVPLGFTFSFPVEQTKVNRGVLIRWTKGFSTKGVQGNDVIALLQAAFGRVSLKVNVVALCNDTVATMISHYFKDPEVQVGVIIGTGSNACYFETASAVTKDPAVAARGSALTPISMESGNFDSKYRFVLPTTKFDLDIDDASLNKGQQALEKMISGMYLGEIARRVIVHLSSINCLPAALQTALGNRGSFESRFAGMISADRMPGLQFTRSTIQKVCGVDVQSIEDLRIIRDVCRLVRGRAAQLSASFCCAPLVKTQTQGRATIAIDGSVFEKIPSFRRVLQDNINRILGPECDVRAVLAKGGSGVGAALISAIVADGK

[25] = target: Eukaryotic translation initiation factor 4E (Mus musculus, UniProt P63073); assay: eIF4E–eIF4G protein interaction inhibitors, dose response, biochemical, TR-FRET (AID 855); assay type: functional;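 note: potency for disrupting eIF4E binding to eIF4GI seen as loss of FRET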
Sequence of Eukaryotic translation initiation factor 4E (P63073 whole entry): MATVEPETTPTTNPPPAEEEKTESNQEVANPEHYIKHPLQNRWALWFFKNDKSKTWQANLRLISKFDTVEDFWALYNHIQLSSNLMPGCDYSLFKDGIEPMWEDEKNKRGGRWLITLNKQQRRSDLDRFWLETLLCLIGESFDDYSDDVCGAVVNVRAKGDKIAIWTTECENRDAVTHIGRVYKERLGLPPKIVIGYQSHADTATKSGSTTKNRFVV

T1 sequence (P11940 whole entry): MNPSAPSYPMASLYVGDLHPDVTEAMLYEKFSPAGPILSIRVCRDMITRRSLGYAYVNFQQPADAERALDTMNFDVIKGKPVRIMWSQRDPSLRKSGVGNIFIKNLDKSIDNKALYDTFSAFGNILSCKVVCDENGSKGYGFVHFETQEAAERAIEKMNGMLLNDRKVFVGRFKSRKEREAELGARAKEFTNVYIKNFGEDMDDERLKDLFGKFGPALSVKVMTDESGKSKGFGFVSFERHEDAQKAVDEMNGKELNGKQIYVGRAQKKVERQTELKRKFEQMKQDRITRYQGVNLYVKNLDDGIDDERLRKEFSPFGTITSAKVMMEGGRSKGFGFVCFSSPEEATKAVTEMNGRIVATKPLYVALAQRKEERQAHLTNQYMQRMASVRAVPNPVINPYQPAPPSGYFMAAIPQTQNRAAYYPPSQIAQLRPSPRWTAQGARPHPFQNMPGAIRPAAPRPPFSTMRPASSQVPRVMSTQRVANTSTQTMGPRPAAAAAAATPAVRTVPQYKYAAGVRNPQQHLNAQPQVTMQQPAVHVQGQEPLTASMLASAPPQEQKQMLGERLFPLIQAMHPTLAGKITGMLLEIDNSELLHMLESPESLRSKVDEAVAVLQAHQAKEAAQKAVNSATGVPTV
Sequence of Glucose-6-phosphate 1-dehydrogenase (P11413 whole entry): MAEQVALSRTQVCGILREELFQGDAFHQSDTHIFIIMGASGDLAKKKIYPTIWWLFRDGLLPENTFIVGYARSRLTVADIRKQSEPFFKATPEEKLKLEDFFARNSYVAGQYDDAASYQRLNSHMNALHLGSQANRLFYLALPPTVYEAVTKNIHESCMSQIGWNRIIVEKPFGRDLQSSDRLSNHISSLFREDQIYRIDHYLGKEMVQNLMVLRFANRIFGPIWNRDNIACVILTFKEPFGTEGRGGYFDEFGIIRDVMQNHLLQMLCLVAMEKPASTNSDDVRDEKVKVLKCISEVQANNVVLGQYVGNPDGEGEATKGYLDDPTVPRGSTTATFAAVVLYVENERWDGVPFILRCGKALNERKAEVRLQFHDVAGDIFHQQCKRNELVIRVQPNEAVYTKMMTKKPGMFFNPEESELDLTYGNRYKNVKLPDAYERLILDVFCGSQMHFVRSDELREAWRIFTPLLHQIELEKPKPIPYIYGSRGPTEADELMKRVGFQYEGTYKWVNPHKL

COc1ccc(C(=O)/C=C/c2cc(OC)c(O)c(OC)c2)c(F)c1
CC50 [1]: 14.3 µM (active) | CC50 [2]: 25.7 µM (active) | AC50 [3]: 7.21 µM (active) | IC50 (Vero [4]): > 25 µM (active) | CC50 (Vero [5]): 18.7 µM (active)

CCCCc1c(O)nc(SCC(=O)c2ccccc2)nc1O
IC50 [6]: > 66 µM (inactive) | IC50 [7]: > 66 µM (inactive) | AC50 (Escherichia coli): 30.3 µM (active)

CCCN(CC(=O)Nc1ccccc1C)C(=O)CCl
EC50 (BJ [8]): 4 µM (active) | EC50 (BJ [9]): 14.9 µM (inconclusive) | EC50 (BJ [10]): > 150 µM (inconclusive) | EC50 [11]: 8.23 µM (active) | AC50 [12]: 4.04 µM (active) | CC50 (Vero [5]): 9.42 µM (active)

Cc1cccc(NC(=O)[C@H](Cc2c[nH]c3ccccc23)NC(=O)[C@@H]2Cc3ccccc3CN2)c1
EC50 (BJ [8]): 28.3 µM (active) | EC50 (BJ [9]): 26.9 µM (active) | EC50 (BJ [10]): > 150 µM (not active) | EC50 [11]: 71.3 µM (active) | IC50 (Vero [4]): 4.39 µM (active) | CC50 (Vero [5]): 19.4 µM (active)

O=C(NNC(=S)NC(=O)c1sc2ccccc2c1Cl)c1ccc(Cl)cc1
IC50 (Vero [4]): 10 µM (active) | CC50 (Vero [5]): > 25 µM (active)

CN(C)S(=O)(=O)c1ccc(C(=O)/C=C/c2cccnc2)cc1
EC50 (BJ [8]): 10.4 µM (active) | CC50 [13]: 17.5 µM (active) | EC50 (BJ [9]): > 150 µM (not active) | EC50 (BJ [10]): > 150 µM (inconclusive) | EC50 [11]: 10.4 µM (active)

COc1ccc(-n2nc3c(N4CCC(C(=O)N5CCC(C)CC5)CC4)nnc(C)c3c2C)cc1
EC50 [14]: > 160 µM (inactive) | EC50 [15]: > 38 µM (not active) | EC50 [16]: > 260 µM (inactive)

CCCn1c(SCC(=O)Nc2ccccc2CC)nnc1C(C)C
EC50 (cells [17]): > 350 µM (not active) | EC50 (cells [18]): > 350 µM (not active)

CC(C)Cn1c2c(c(O)c(C(=O)Nc3ccc(F)cc3)c1=O)CCCC2
CC50 [13]: > 40 µM (active)

COCc1cc(C)n(CC(=O)NC(C)c2ccccc2)c(=O)c1C#N (stereo unspecified)
AC50 (Escherichia coli): 27.1 µM (active)

CCc1sc2nc(SCC(=O)Nc3cc(C)on3)n(-c3cccc(OC)c3)c(=O)c2c1C
CC50 [13]: 36.3 µM (active)

CCOC(=O)c1c(-c2ccccc2)oc2cc(CN(C)C)c(O)c(CN(C)C)c12
EC50 (cells [17]): 28 µM (active) | EC50 (cells [18]): > 350 µM (not active) | AC50 [19]: 7.81 µM (active) | AC50 [20]: 21.2 µM (active) | AC50 [21]: 5.5 µM (active)

O=C(NCc1cccc(Cl)c1)c1cnn2c1NC(c1ccco1)CC2C(F)(F)F (stereo unspecified)
AC50 (Escherichia coli): 24.2 µM (active)

Cc1cccc(CCNC(=O)Cn2ncc3c4cc(C)ccc4nc-3c2O)c1
EC50 (cells [17]): > 350 µM (not active) | EC50 (cells [18]): > 350 µM (not active)

Cc1cccc(NCc2ccc([N+](=O)[O-])s2)c1
CC50 [22]: > 40 µM (active)

CCC1Oc2nc(SC)nnc2-c2ccccc2N1C(=O)c1ccccc1 (stereo unspecified)
AC50 (Escherichia coli): 24.1 µM (active)

O=C(/C=C/c1ccccn1)c1cc(Br)ccc1O
CC50 [13]: > 40 µM (active) | AC50 [23]: 2.03 µM (active)

N#CC(C#N)=C1C=CC=CN1/C(=C\c1ccccc1Cl)C(=O)c1ccccc1
IC50 [24]: > 80 µM (inactive) | IC50 (Vero [4]): > 25 µM (active) | CC50 (Vero [5]): 24.5 µM (active)

CC1(c2ccc(C(=O)Nc3cc(Cl)ccc3C(=O)O)cc2)CC1
IC50 (Hexokinase): 8 µM (active) and 4.24 µM (active)

CN(C)c1cccc(NC(=O)Cn2sc3ccccc3c2=O)c1
IC50 (Hexokinase): 8.21 µM (active)

O=c1c2ccccc2[s+]([O-])n1-c1ccc(Cl)cc1 (stereo unspecified)
IC50 (Hexokinase): > 25 µM (inactive)

COc1ccccc1NC(=O)Cn1sc2ccccc2c1=O
IC50 (Hexokinase): 6.28 µM (active)

COC(CN(C)C(=O)C1CCCN(S(=O)(=O)c2ccc3c(c2)oc(=O)n3C)C1)OC (stereo unspecified)
AC50 (Escherichia coli): 27.3 µM (active)

O=C(N/N=C/c1ccc2c(c1)OCO2)c1sc2cc(Cl)ccc2c1Cl
CC50 [13]: > 40 µM (active) | IC50 [25]: > 64 µM (inactive)

COc1cc(/C=N/NC(=O)c2cc(-c3cccc(OC(C)C)c3)nc3ccccc23)ccc1O
CC50 [1]: 15.5 µM (active) | IC50 (Vero [4]): > 25 µM (active) | CC50 (Vero [5]): > 25 µM (active)

O=c1c(/N=N/c2ccc(O)cc2)c(-c2ccccc2)[nH]n1-c1ccc([N+](=O)[O-])cc1
CC50 [13]: 17.7 µM (active)
